These results are taken from PMC7933316 (2021).

Structures are written as SMILES.

What all share (experiment): SPR (equilibrium)
For experiment [1], the system named is TZea-579 (full length, G12A, SPR form) (RNA, ribozyme) GGGAAACAAACAAAGCUGUCACCGGGUAGAACAGAAUGCAAGUGCGUAGAAGCGCCUCCGGUCUGACGAGUCCUUAGCACGGACAAAACAGCAAAAAAAAAAAAAAAAAAAAAAAA
The conditions noted are these: Na+ (1.5 M NaCl [sic]), Mg2+ 0.5 mM; HBS-N (0.1 M HEPES [sic]), pH 7.4.

The test system of experiment [2] is TZea-579 large stem loop (RNA, aptamer) GGGACCGGGUAGAACAGAAUGCAAGUGCGUAGAAGCGCCUCCGGUCCCCAAAAAAAAAAAAAAAAAAAAAAAA
The conditions noted are these: Na+ (1.5 M NaCl [sic]), Mg2+ 0.5 mM; HBS-N (0.1 M HEPES [sic]), pH 7.4.

The subject of experiment [3] is TZea-927 (full length, G12A, SPR form) (RNA, ribozyme) GGGAAACAAACAAAGCUGUCACCGGAAACUGGAUCUGGUCUGAUGAGUCCCUCCAUGCGACCCAGUGUGAUACGUGGACAGGACAAAACAGCAAAAAAAAAAAAAAAAAAAAAAAA
As to conditions: Na+ (1.5 M NaCl [sic]), Mg2+ 0.5 mM; HBS-N (0.1 M HEPES [sic]), pH 7.4.

Experiment [4] deals with TZea-927 large stem loop (T7_zea927_polyA) (RNA, aptamer) GGGGUCCCUCCAUGCGACCCAGUGUGAUACGUGGACAGGACCCCCAAAAAAAAAAAAAAAAAAAAAAAA
The conditions noted are these: Na+ (1.5 M NaCl [sic]), Mg2+ 0.5 mM; HBS-N (0.1 M HEPES [sic]), pH 7.4.

Experiment [5] concerns Gard-547 (full length, G12A, SPR form) (RNA, ribozyme) GGGAAACAAACAAAGCUGUCACCGGAAUAGUCGAUGGGUGCUACAUAGCGCCGGAAUCCAGUCUGAUGAGUCUCUCGGCAGGACAAAACAGCAAAAAAAAAAAAAAAAAAAAAAAA
The conditions noted are these: Na+ (1.5 M NaCl [sic]), Mg2+ 0.5 mM; HBS-N (0.1 M HEPES [sic]), pH 7.4; no replicates.

The subject of experiment [6] is SRet-760 (full length, G12A, SPR form) (RNA, ribozyme) GGGAAACAAACAAAGCUGUCACUGGACCCUAACAUUCCAGUCUGAUGAGUCCUAUAGGCACGCUUCCCCCAGGUGUAGGGAGGACAAAACAGCAAAAAAAAAAAAAAAAAAAAAAAA
The conditions noted are these: Na+ (1.5 M NaCl [sic]), Mg2+ 0.5 mM; HBS-N (0.1 M HEPES [sic]), pH 7.4.

Experiment [7] has as its system SRet-760 large stem loop (T7_SRet760_polyA) (RNA, aptamer) GGGGUCCUAUAGGCACGCUUCCCCCAGGUGUAGGGAGGACCCCCAAAAAAAAAAAAAAAAAAAAAAAA
The conditions noted are these: Na+ (1.5 M NaCl [sic]), Mg2+ 0.5 mM; HBS-N (0.1 M HEPES [sic]), pH 7.4.

Experiment [8] has as its system SRet-584 (full length, G12A, SPR form) (RNA, ribozyme) GGGAAACAAACAAAGCUGUCACUGGACGCAAAAAUUCCAGUCUGAUGAGUCCAUAAUGAGCAACAACACGAUUCCUCAUGCGGGACAAAACAGCAAAAAAAAAAAAAAAAAAAAAAAA
The conditions noted are these: Na+ (1.5 M NaCl [sic]), Mg2+ 0.5 mM; HBS-N (0.1 M HEPES [sic]), pH 7.4.

Experiment [9] relates to Nosc-441 (full length, G12A, SPR form) (RNA, ribozyme) GGGAAACAAACAAAGCUGUCACCGGAAGAACUGACAUUUGCAACGUCAUGUGCGAUGUCCAACGUGUAGCCACCUAGGCGUACAGAUCCGGUCUGAUGAGUCCUCGAUGGACAAAACAGCAAAAAAAAAAAAAAAAAAAAAAAA
The conditions noted are these: Na+ (1.5 M NaCl [sic]), Mg2+ 0.5 mM; HBS-N (0.1 M HEPES [sic]), pH 7.4.

Experiment [10] concerns Nosc-441 large stem loop (RNA, aptamer) GGGACCGGAAGAACUGACAUUUGCAACGUCAUGUGCGAUGUCCAACGUGUAGCCACCUAGGCGUACAGAUCCGGUCCCCAAAAAAAAAAAAAAAAAAAAAAAA
The conditions noted are these: Na+ (1.5 M NaCl [sic]), Mg2+ 0.5 mM; HBS-N (0.1 M HEPES [sic]), pH 7.4.

Experiment [11] has as its system Nosc-786 (full length, G12A, SPR form) (RNA, ribozyme) GGGAAACAAACAAAGCUGUCACCGGAAGAACUUACAUUUGCAACGUCAUGUGCGAUGUCCAACGUGUAGCCACCUAGGCGUACAGAUCCGGUCCGAUGAGUCCUCGAUGGACAAAACAGCAAAAAAAAAAAAAAAAAAAAAAAA
The conditions noted are these: Na+ (1.5 M NaCl [sic]), Mg2+ 0.5 mM; HBS-N (0.1 M HEPES [sic]), pH 7.4.

For experiment [12], the system named is Theo-421 (full length, G12A, SPR form) (RNA, ribozyme) GGGAAACAAACAAAGCUGUCACCGGAAUGUGAGUCCGGUCUGAUGAGUCCCUCAUGUGCCUUCCAGCGGUACGAUACUCAGGACAAAACAGCAAAAAAAAAAAAAAAAAAAAAAAA
The conditions noted are these: Na+ (1.5 M NaCl [sic]), Mg2+ 0.5 mM; HBS-N (0.1 M HEPES [sic]), pH 7.4.

The subject of experiment [13] is Theo-421 truncation, minimum free energy structure (T7_theo421_polyA_MFE) (RNA, aptamer) GGGGUCCCUCAUGUGCCUUCCAGCGGUACGAUACUCAGGACCCCCAAAAAAAAAAAAAAAAAAAAAAAA
The conditions noted are these: Na+ (1.5 M NaCl [sic]), Mg2+ 0.5 mM; HBS-N (0.1 M HEPES [sic]), pH 7.4.

Experiment [14] deals with Theo-421 truncation, 1st suboptimal structure (T7_theo421_polyA_subopt1) (RNA, aptamer) GGGUGAGUCCCUCAUGUGCCUUCCAGCGGUACGAUACUCACCCCAAAAAAAAAAAAAAAAAAAAAAAA
The conditions noted are these: Na+ (1.5 M NaCl [sic]), Mg2+ 0.5 mM; HBS-N (0.1 M HEPES [sic]), pH 7.4.

Experiment [15] relates to Acic-145 (full length, G12A, SPR form) (RNA, ribozyme) GGGAAACAAACAAAGCUGUCACCGGAAUAACCGAAGUAGUUUAUGGGCUACCGAAAUCCGGUCUGAUGAGUCCUCGGGGUGGACAAAACAGCAAAAAAAAAAAAAAAAAA
The conditions noted are these: Na+ (1.5 M NaCl [sic]), Mg2+ 0.5 mM; HBS-N (0.1 M HEPES [sic]), pH 7.4.

Experiment [16] has as its system Acic-145 large stem loop (T7_acic145_polyA) (RNA, aptamer) GGGACCGGAAUAACCGAAGUAGUUUAUGGGCUACCGAAAUCCGGUCCCCAAAAAAAAAAAAAAAAAAAAAAAA
The conditions noted are these: Na+ (1.5 M NaCl [sic]), Mg2+ 0.5 mM; HBS-N (0.1 M HEPES [sic]), pH 7.4.

On to `C/C(=C\CNc1ncnc2[nH]cnc12)CO`, for which the KD in experiment [1] was found to be 3.1 ± 0.5 µM; in experiment [2] it was 37 ± 3 µM; in experiment [3], 62 ± 20 µM. Besides, the binding result in experiment [4] is “no”.

In experiment [5], `CCNCc1nc2c(N)nc3ccccc3c2n1CC(C)(C)O` registered a KD of 0.0101 µM.

In the case of `COc1ccc(C[C@H]2c3cc(O)c(OC)cc3CCN2C)cc1O`, in experiment [6], the KD is on record as 0.15 ± 0.01 µM. Also, the binding result in [7] is “no”. In addition, in experiment [8], the “Equilibrium KD” value was found to be 0.465 µM.

With `COc1ccc2c(c1OC)C(=O)O[C@@H]2[C@H]1c2c(cc3c(c2OC)OCO3)CCN1C`, the KD in [9] came out at 13 ± 2 µM; in experiment [10], 20 ± 7 µM. In experiment [11], the “Equilibrium KD” value worked out at 28.7 µM.

For the compound `Cn1c(=O)c2[nH]cnc2n(C)c1=O`, the KD worked out at 68 ± 20 µM in experiment [12] and 17.0 ± 0.7 µM in [14]. Moreover, the binding entry in experiment [13] is given as “no”.

Turning to `Nc1nc2c(ncn2COCCO)c(=O)[nH]1`, the KD is on record as 1.5 ± 0.3 µM in experiment [15] and 0.700 ± 0.004 µM in [16].
